Values quoted from earlier work, collected in US11033514B2 (priority 2016, dated 2021).

[1] = Nguyen et al. (2009), oral dose 5 grams

| Structure (SMILES) | Half life in blood (in vivo, po) [h] | Plasma level (in vivo, po) [nM] | Half-Life (Goldberg et al. (2003), oral dose 25 mg) [h] | % of orally administered dose of resveratrol bioavailable [1] | Unconjugated/Free Resveratrol in plasma (Bioavailability) [1] [nmol/L] |
| --- | --- | --- | --- | --- | --- |
| Oc1ccc(/C=C/c2cc(O)cc(O)c2)cc1 [Synthetic resveratrol] | 0.5 | 5 to 40 |  |  |  |
| Oc1ccc(/C=C/c2cc(O)cc(O)c2)cc1 [resveratrol, 3,5,4′-trihydroxy-trans-stilbene] |  |  | 2 | (0.012% of orally | 2400 |
